Assay results reported in patent US11786517B2, “Methods of treatment using a JAK inhibitor compound” (THERAVANCE BIOPHARMA R&D IP, LLC, priority 2017, dated 2023).

Experiments:
[1] = system: IFNγ induced pSTAT1 in rabbit retina/choroid tissue; assay: Pharmacodynamic assay: inhibition of IFNγ-induced pSTAT1 in rabbit eyes; assay type: in vivo, New Zealand White rabbits; conditions: 0.9 mg intravitreal suspension, 1 week pre-treatment
Description: The ability of a single intravitreal administration of test compound to inhibit interferon-gamma (IFNγ) induced phosphorylation of STAT1 protein (pSTAT1) was measured in rabbit retina/choroid tissue.
A suspension formulation was prepared by combining compound 1 of Example 1, with 0.5% hydroxypropyl methylcellulose (HPMC E5), 0.02% Tween 80, and 9 mg/mL sodium chloride in purified water to attain a target concentration of 20 mg/mL.
Male, New Zealand White rabbits (Liveon Biolabs, India) were used for the studies. Animals were acclimated after arrival at the research facilities (Jubilant Biosys Ltd., India). Each rabbit was given a total of two intravitreal (IVT) injections with a total dose volume of 50 μL per eye. The first IVT injection (45 μL per eye) delivered 0.9 mg of test compound or vehicle. One week later, a second IVT injection (5 μL per eye) delivered IFNγ (1 μg/eye; stock solution 1 mg/mL; Kingfisher Biotech) or vehicle for the induction of IP-10. […]
Tissues were collected 2 hours after the second IVT injection with IFNγ. Retina/choroid tissues (R/C) were collected and homogenized, and pSTAT1 levels were measured by quantitative Western Blot on the ProteinSimple WES instrument. The percent inhibition of IFNγ-induced pSTAT1 was calculated in comparison to the vehicle/vehicle and vehicle/IFNγ groups.

[2] = Ocular pharmacokinetics in rabbit eyes; assay type: in vivo, New Zealand white rabbits
Description: The objective of this assay was to determine the pharmacokinetics of the test compound in rabbit ocular tissues.
The compound of the invention, 5-ethyl-2-fluoro-4-(3-(5-(1-methylpiperidin-4-yl)-4,5,6,7-tetrahydro-1H-imidazo[4,5-c]pyridin-2-yl)-1H-indazol-6-yl)phenol (1) was dissolved in either 10% 2-hydroxypropyl-β-cyclodextrin to attain a target concentration of 4 mg/mL or in purified water to attain a target concentration of 1 mg/mL. Bilateral intravitreal injection (50 μL/eye) of the solution of test compound was administered to New Zealand white rabbits in two dose groups, 200 μg/eye and 50 μg/eye, respectively, for the cyclodextrin and water vehicle formulations, respectively. The test compound concentration was measured in ocular tissues: vitreous, aqueous, retina/choroid and iris-ciliary body at pre-determined time points post injection (30 min, 4 h, 1 d, 3 d, 7 d, 14 d). Two rabbits (four eyes) were dosed for each time point.
A suspension formulation was prepared by combining crystalline compound 1 of Example 1 with 0.5% hydroxypropyl methylcellulose (HPMC E5)+0.02% Tween 80 to attain a target concentration of 10 mg/mL. Bilateral intravitreal injection (50 μL/eye) of the suspension of test compound was administered to New Zealand white rabbits (500 μg/eye). The test compound concentration was measured in ocular tissues as in the […] at 30 min, 2 wks, 4 wks, 6 wks, and 8 wks post injection. […] The behavior is consistent with the solubility of compound 1 in the vehicle and the ocular pharmacokinetic behavior in the solution formulation. The drug concentration in plasma was measured and found to be at least 3 orders of magnitude lower than the concentration in vitreous tissue.

Q: With `CCc1cc(O)c(F)cc1-c1ccc2c(-c3nc4c([nH]3)CCN(C3CCN(C)CC3)C4)n[nH]c2c1` [Example 1, Crystalline hydrate of 5-ethyl-2-fluoro-4-(3-(5-(1-methylpiperidin-4-yl)-4,5,6,7-tetrahydro-1H-imidazo[4,5-c]pyridin-2-yl)-1H-indazol-6-yl)phenol] as the molecule, how does the “inhibition of IFNγ-induced pSTAT1” value [1] read?
A: The value was 85%.

Q: What about the “drug concentration in plasma lower than concentration in vitreous tissue” value ([2]; intravitreal injection, listed as compound 1 of Example 1) of the same molecule?
A: The value was “at least 3 orders of magnitude”.

Q: And the “clearance rate, linear decrease in drug concentration in the vitreous” value ([2]; intravitreal suspension 500 μg/eye, 30 min to 6 weeks)?
A: The value was “approximately 3 μg/mL/day”.
